In patent US5541174A, “Analgesic method” (priority 1995, dated 1996):
Where two headings read alike, the source gives them in different places.

Assays:
[1] = test system: acetic acid induced writhing in mice; assay: Acetic acid-induced writhing test; format: in vivo, ICR male mice
Method: 1. Acetic acid-induced writhing test as described in Koster et al., "Acetic Acid for Analgesic Screening", Fed. Proc. 18, 412 (1959), incorporated by reference herein; and
Groups of 10 ICR male mice (Taisho Pharmaceutical Co. Research Center) were used to study each dose of every compound. Ligands or complexes were administered orally or subcutaneously in 0.1 ml of vehicle per 10 g of body weight 30 minutes before the intrapertioneal injection of 0.1 ml of 0.7% acetic acid solution per 10 g of body weight. Number of writhes were counted for each mouse during a period of 10 to 20 min after acetic acid injection. Inhibitory percent was calculated by comparison with the number of writhes in the non-treated control, vehicle-treated, and acetic acid-injected group. The ED50 value and 95% confidence limits were calculated from the inhibitory percent by the method of Litchfield and Wilcoxon.

[2] = test system: adjuvant-induced arthritic pain in rats; assay: Adjuvant-induced arthritic pain; format: in vivo, male Sprague-Dawley rats
From the text: 2. Adjuvant-induced arthritic pain as described in:
S. KUZNA, et al., Measurement of Arthritic Pain and Effects of Analgesics in the Adjuvant-Treated Rat, Chem. Pharm. Bull. 23, 1184-1191 (1975);
C. A. WINTER, et al., Analgesic Activity of Diflunisal in Rats with Hyperalygesia Induced by Freud's Adjuvant, J. Pharmacol. Exp. Ther. 211, 678-685 (1979; and
M. E. ROSENTHALE, et al., Adjuvant Arthritis:Immuno-Pathological and Hyperalgesic Features, Fed. Proced. 41, 2577-2582 (1982),
incorporated by reference herein.
Groups of 5-6 male Sprague-Dawley rats (Taisho Pharmaceutical Co. Research Center) weighing 140 to 160 g at the time of Mycobacterium butyricum (adjuvant, Difco Laboratories, Detroit, Mich.) injection were used to study each compound. Rats were injected intradermally at the base of the tail with 0.1 ml of a parafin oil suspension of 0.5 mg of heat-killed mycobacterium. Fifteen to 19 days later, drugs were administered orally or subcutaneously in 0.5 ml of vehicle per 100 g of body weight to rats showing the nociceptive reaction, vocalization following a gentle flexion of the tarsal-tibial joint of the inflamed hind-paw. Vocalization responses were measured every hour for 5 hours. […] The ED50 value and 95% confidence limits were calculated from the positive rate for non-treated controls, vehicle-treated adjuvant arthritic rats, by the method of Litchfield and Wilcoxin.
All drugs were suspended with 5% gum arabic in saline solution or wetted with enough propylene glycol to give a final concentration of 4% propylene glycol and the wetted solid suspended in 1.4% polyvinyl alcohol in saline.

[3] = oral, 5% gum arabic, 0.20 mmol/kg
[4] = oral, 5% gum arabic, 0.40 mmol/kg

## CC(C)c1cc(C(=O)[O-])c(O)c(C(C)C)c1.CC(C)c1cc(C(=O)[O-])c(O)c(C(C)C)c1.[Cu+2] [Cu(II)(3,5-dips)2]
[1]; oral, 5% gum arabic in saline
  ED50: 0.40 mmol/kg
  analgesic effectiveness versus parent ligand: slightly less effective than its parent ligand
[1]; [3]
  % Inhibition: 35%
[1]; [4]
  % Inhibition: 48%
[1]; oral, 5% gum arabic, 0.80 mmol/kg
  % Inhibition: 66%
[1]; oral, PG-PVA
  analgesic effectiveness versus parent ligand: only as effective as its parent ligand
[1]; oral, PG-PVA in saline
  ED50: 0.43 mmol/kg
[1]; oral, PG-PVA, 0.20 mmol/kg
  % Inhibition: 26%
[1]; oral, PG-PVA, 0.40 mmol/kg
  % Inhibition: 56%
[1]; oral, PG-PVA, 0.79 mmol/kg
  % Inhibition: 62%
[1]; s.c., PG-PVA in saline
  ED50: 0.20 mmol/kg
[1]; s.c., PG-PVA, 0.10 mmol/kg
  % Inhibition: 27%
[1]; s.c., PG-PVA, 0.20 mmol/kg
  % Inhibition: 45%
[1]; s.c., PG-PVA, 0.40 mmol/kg
  % Inhibition: 74%
[2]; oral, 5% gum arabic
  analgesic effectiveness versus parent ligand: essentially equipotent with its ligand
[2]; oral, 5% gum arabic in saline
  ED50: 0.43 mmol/kg
[2]; oral, 5% gum arabic, 0.10 mmol/kg
  % Inhibition: 7%
[2]; [3]
  % Inhibition: 20%
[2]; [4]
  % Inhibition: 47%
[2]; oral, PG-PVA
  analgesic effectiveness versus parent ligand: more effective than its parent ligand
[2]; oral, PG-PVA in saline
  ED50: > 0.40 mmol/kg
[2]; oral, PG-PVA, 0.40 mmol/kg
  % Inhibition: 40%
[2]; s.c., PG-PVA in saline
  ED50: 0.12 mmol/kg
[2]; s.c., PG-PVA, 0.05 mmol/kg
  % Inhibition: 23%
[2]; s.c., PG-PVA, 0.10 mmol/kg
  % Inhibition: 37%
[2]; s.c., PG-PVA, 0.20 mmol/kg
  % Inhibition: 70%

## N[C@@H](CS)C(=O)O [L-cysteine, reference compound]
[1]; oral, 5% gum arabic in saline
  ED50: > 3.30 mmol/kg
[1]; oral, 5% gum arabic, 3.30 mmol/kg
  % Inhibition: -5%

## NCC(=O)[O-].NCC(=O)[O-].[Cu+2] [Cu(II)(glycinate)2]
[1]; Table VI
  activity versus other copper complexes and parent ligand: less active than the other copper complexes
[1]; oral, 5% gum arabic in saline
  ED50: > 1.89 mmol/kg
[1]; oral, 5% gum arabic, 1.89 mmol/kg
  % Inhibition: 48%

## NCC(=O)O [Glycine, reference compound]
[1]; oral, 5% gum arabic in saline
  ED50: > 5.33 mmol/kg
[1]; oral, 5% gum arabic, 5.33 mmol/kg
  % Inhibition: 36%

## C[C@H](N)C(=O)O [L-alanine, reference compound]
[1]; oral, 5% gum arabic in saline
  ED50: > 4.49 mmol/kg
[1]; oral, 5% gum arabic, 4.49 mmol/kg
  % Inhibition: 14%

## CN1CC[C@]23c4c5ccc(O)c4O[C@H]2[C@@H](O)C=C[C@H]3[C@H]1C5 [morphine, reference compound]
[2]; Rattus norvegicus, sc, read-out: ED50 (AA)
  ED50: 0.002 mmol/kg
[2]; s.c., hydrochloride salt in saline
  ED50 (AA): 0.002 mmol/kg
[2]; s.c., hydrochloride salt in saline, 0.001 mmol/kg
  % Inhibition: 20%
[2]; s.c., hydrochloride salt in saline, 0.002 mmol/kg
  % Inhibition: 40%
[2]; s.c., hydrochloride salt in saline, 0.004 mmol/kg
  % Inhibition: 60%
